Reference: patent US11458189B2, “Cytoprotective drugs” (BALMES TRANSPLANTATION, priority 2017, dated 2022)
Starred links: 1 amine or outer side, 2 acyl side, 3 side chain; linkers in the order of their positions; H or OH if unused. Positions of bridges follow the written chain, without caps; N, C: chain ends. Non-standard residues stand in square brackets, D forms with d. Residues, ends and D or L forms follow the SMILES beside them. ξ: configuration not given here. *: point of attachment. pTerphenylCO(4''-OnC5H11) = CCCCCOc1ccc(-c2ccc(-c3ccc(C(=O)*)cc3)cc2)cc1; Orn(4R-OH,5R-OH) = O=C([C@H](C[C@@H](O)[C@@H](O)N[*:3])N[*:1])[*:2]; hTyr(3S-OH,4S-OH) = N[C@H](C(=O)O)[C@H](O)[C@@H](O)c1ccc(O)cc1; Pro(3S-OH,4S-Me) = C[C@H]1CN[C@H](C(=O)O)[C@H]1O; ξPro(4R-OH) = O=C(O)C1C[C@@H](O)CN1

Tested on: Human Renal Glomerular Endothelial Cells (HRGEC)
Assay: Oxygen and glucose deprivation followed by replenishment, cell survival (calcein AM), HRGEC
Type: cell-based
Description: Anidulafungin and micafungin were tested on Human Renal Glomerular Endothelial Cells (HRGEC, Innoprot P10665), on Human Renal Proximal Tubular Epithelial Cells (HRPTEpiC, Innoprot P10662), on Human Astrocytes (HA, caltag SC-1800), on Human Cardiac Microvascular Endothelial Cells (HCMEC, Caltag SC-6000), on Human Hepatic Sinusoidal Endothelial Cells (HHSEC, Caltag SC-5000), on Rat Primary Kidney Glomerular Endothelial cells (Cellbiologics, RN-6014G) and on Bovine Brain Microvascular Endothelial Cells (BBMEC, Caltag SC-B100).
In a first phase, these isolated, purified and cryopreserved cells are thawed and multiplied according to the supplier's recommendations in T75 or T175 flasks pre-coated with 2 μg of fibronectin/[…] (CORNING) for HRGEC, HCMEC, HHSEC and BBMEC, or 2 μg poly-L-lysin/cm^2 (Caltag SC-0403) for HRPTEpiC and HA, or 15 mL/flask 175 cm^2 gelatin-based solution (Cellbiologics) in the presence of endothelial cell supplemented growth medium ECM (P60104, INNOPROT, Caltag, SC-1001) for HRGEC, HCMEC, HHSEC, RPKGEC or BBMEC, or astrocyte cell supplemented growth medium AM (Caltag SC-1801) for HA or epithelial cell supplemented growth medium EpiCM (P60106, INNOPROT) for HRPTEpiC, at 37° C. under 5% CO2 and saturated humidity until their confluency. They are then harvested by trypsinization according to the method described by the supplier for exactly 5 minutes and then reseeded in new flasks a maximum of three times.
To carry out the oxygen and glucose deprivation test followed by their replenishment, the cells will be seeded in 96-well black plates with transparent flat bottom (GREINER). Once a sufficient number of cells has been obtained to allow seeding of 2000 to 15000 cells per well of 96-well plates depending on the cell type, the cells are seeded in these 96-well plates previously coated with an extracellular matrix as listed above for the flasks. The cells are cultured for 5 to 8 days according to the cell type, in the presence of the same growth medium as in the flask as described above except for HRGEC and HRPTEpiC for which DMEM (DUTSCHER) with 1 g/L of supplemented glucose is used, at 37° C. under 5% CO2 and saturated humidity to obtain confluency.
On the first day of oxygen and glucose deprivation, (5th, 6th, 7th or 8th day of culture), the culture conditions are drastically changed. The medium of all plates is removed and replaced by DMEM (DUTSCHER) medium without glucose and supplemented only with 1% penicillin-streptomycin (DUTSCHER). Anidulafungin or micafungin dissolved in dimethyl sulfoxide (DMSO) is then added to each well at the desired concentration, resulting in a maximum of 1% DMSO, and the plates are placed under hypoxia at <1% 02 and 5% CO2 at 37° C. for 24 hours of culture. Each compound was tested in a concentration range.
After 24 hours, the growth medium is changed and replaced by a richer medium, DMEM (DUTSCHER) at 1 g/L glucose and 2% FBS (INNOPROT) and 1% penicillin-streptomycin (DUTSCHER). These media will have been pre-equilibrated at 37° C. in advance. The cells are then returned to culture at 37° C. under 20% 02 and 5% CO2 for 22h.
After 22 hours of reoxygenation, the potential protective effect of anidulafungin or micafungin is measured by a cell viability test using calcein AM (CORNING), which is a dye substrate. The calcein AM can easily cross the cell membrane of the viable cells. The AM ester groups mask the part of the molecule that chelates calcium. Once inside the cells, the (non-fluorescent) calcein AM is hydrolyzed to (fluorescent) calcein by endogenous esterases. The resulting calcein molecule binds to calcium inside the cell and remains trapped inside the cell. These molecules emit strong green fluorescence when subjected to […] of a particular wavelength (495 nm). Since dead cells lack esterase activity, only living cells are labelled.
This cell viability test is performed in two steps. […]

[1] = [Anidulafungin] log μM 0.7781513
[2] = [Anidulafungin] log μM 1.079181
[3] = [Anidulafungin] log μM 1.255273

Structure (SMILES): CCCCCOc1ccc(-c2ccc(-c3ccc(C(=O)N[C@H]4C[C@@H](O)[C@@H](O)NC(=O)[C@@H]5[C@@H](O)[C@@H](C)CN5C(=O)[C@H]([C@@H](C)O)NC(=O)[C@H]([C@H](O)[C@@H](O)c5ccc(O)cc5)NC(=O)C5C[C@@H](O)CN5C(=O)[C@H]([C@@H](C)O)NC4=O)cc3)cc2)cc1 (stereo partly drawn) [Anidulafungin] ({pTerphenylCO(4''-OnC5H11)}-[Orn(4R-OH,5R-OH)]T[ξPro(4R-OH)][hTyr(3S-OH,4S-OH)]T[Pro(3S-OH,4S-Me)]; lactam 1-C)
- Globalfluo assay 1 ([Anidulafungin] log μM 0): 1595273 arbitrary units
- Globalfluo assay 2 ([Anidulafungin] log μM 0): 2299957 arbitrary units
- Globalfluo assay 3 ([Anidulafungin] log μM 0): 2320330 arbitrary units
- Mean globalfluo ([Anidulafungin] log μM 0): 2071853 arbitrary units
- Survival rate (%) ([Anidulafungin] log μM 0): −6%
- Globalfluo assay 1 ([Anidulafungin] log μM 0.30103): 3108717 arbitrary units
- Globalfluo assay 2 ([Anidulafungin] log μM 0.30103): 8079028 arbitrary units
- Globalfluo assay 3 ([Anidulafungin] log μM 0.30103): 4587276 arbitrary units
- Mean globalfluo ([Anidulafungin] log μM 0.30103): 5258340 arbitrary units
- Survival rate (%) ([Anidulafungin] log μM 0.30103): 7%
- Globalfluo assay 1 ([Anidulafungin] log μM 0.60206): 6404501 arbitrary units
- Globalfluo assay 2 ([Anidulafungin] log μM 0.60206): 5391467 arbitrary units
- Globalfluo assay 3 ([Anidulafungin] log μM 0.60206): 4055726 arbitrary units
- Mean globalfluo ([Anidulafungin] log μM 0.60206): 5283898 arbitrary units
- Survival rate (%) ([Anidulafungin] log μM 0.60206): 7%
- Globalfluo assay 1 [1]: 1844220 arbitrary units
- Globalfluo assay 2 [1]: 8446890 arbitrary units
- Globalfluo assay 3 [1]: 6499110 arbitrary units
- Mean globalfluo [1]: 5596740 arbitrary units
- Survival rate (%) [1]: 8%
- Globalfluo assay 1 ([Anidulafungin] log μM 0.90309): 7152564 arbitrary units
- Globalfluo assay 2 ([Anidulafungin] log μM 0.90309): 8021501 arbitrary units
- Globalfluo assay 3 ([Anidulafungin] log μM 0.90309): 6792572 arbitrary units
- Mean globalfluo ([Anidulafungin] log μM 0.90309): 7322212 arbitrary units
- Survival rate (%) ([Anidulafungin] log μM 0.90309): 15%
- Globalfluo assay 1 ([Anidulafungin] log μM 1): 8082278 arbitrary units
- Globalfluo assay 2 ([Anidulafungin] log μM 1): 8981812 arbitrary units
- Globalfluo assay 3 ([Anidulafungin] log μM 1): 10460790 arbitrary units
- Mean globalfluo ([Anidulafungin] log μM 1): 9174960 arbitrary units
- Survival rate (%) ([Anidulafungin] log μM 1): 23%
- Globalfluo assay 1 [2]: 12175690 arbitrary units
- Globalfluo assay 2 [2]: 10104310 arbitrary units
- Globalfluo assay 3 [2]: 9396440 arbitrary units
- Mean globalfluo [2]: 10558813 arbitrary units
- Survival rate (%) [2]: 28%
- Globalfluo assay 1 ([Anidulafungin] log μM 1.20412): 12170420 arbitrary units
- Globalfluo assay 2 ([Anidulafungin] log μM 1.20412): 9545764 arbitrary units
- Globalfluo assay 3 ([Anidulafungin] log μM 1.20412): 9735499 arbitrary units
- Mean globalfluo ([Anidulafungin] log μM 1.20412): 10483894 arbitrary units
- Survival rate (%) ([Anidulafungin] log μM 1.20412): 28%
- Globalfluo assay 1 [3]: 10855790 arbitrary units
- Globalfluo assay 2 [3]: 12347330 arbitrary units
- Globalfluo assay 3 [3]: 7837444 arbitrary units
- Mean globalfluo [3]: 10346855 arbitrary units
- Survival rate (%) [3]: 27%
- Globalfluo assay 1 ([Anidulafungin] log μM 1.30103): 10143140 arbitrary units
- Globalfluo assay 2 ([Anidulafungin] log μM 1.30103): 10354290 arbitrary units
- Globalfluo assay 3 ([Anidulafungin] log μM 1.30103): 10227990 arbitrary units
- Mean globalfluo ([Anidulafungin] log μM 1.30103): 10241807 arbitrary units
- Survival rate (%) ([Anidulafungin] log μM 1.30103): 27%
